Assay results from patent publication US9890147B2 (BAYER PHARMA AKTIENGESELLSCHAFT, priority 2012, dated 2018).
pIC50: −log10 of the molar value.

What was measured:
MOLM-13 cells = assay: Cell proliferation assay (alamarBlue), MOLM-13; assay type: cell-based; conditions: 96 hours incubation, inhibition of cell proliferation
How it was run: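 IC50 = concentration giving 50% growth inhibition relative to buffer-treated cells, after subtracting baseline fluorescence taken before dosing. Compound applied at 1E-5 to 1E-8 M for 96 h at 37 °C in RPMI1640 with 10% FCS; alamarBlue signal at 530/590 nm.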

BRD4 (BD1) = molecular target: T1, BRD4 (BD1) (Homo sapiens, UniProt O60885); assay: Binding assay BRD4/acetylated peptide H4 (TR-FRET protein-protein interaction assay)
T1 construct: with relatively long constructs also being possible, preferably amino acids 44-168; made in house; host or cells: E. coli
How it was run: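 Displacement of biotin-Ac-H4 peptide from His6-tagged BRD4(BD1), final usually 10 nM, read as Eu-streptavidin to anti-His-XL665 TR-FRET (665/620 nm). Compounds tested at 11 doses up to 20 μM in duplicate, pH 7.5 HEPES, 22 °C then 4 °C incubation; IC50 by 4-parameter regression.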

SMILES | pIC50 (MOLM-13 cells; Homo sapiens) | pIC50 (BRD4 (BD1)) | pIC50 (MOLM-13 cells)
CNC(=O)N1N=C(c2ccc(-c3nnc(C)o3)cc2)c2cc(OC)c(OC)cc2CC1C (racemic) [Example 247, (±)-7,8-Dimethoxy-N,4-dimethyl-1-[4-(5-methyl-1,3,4-oxadiazol-2-yl)phenyl]-4,5-dihydro-3H-2,3-benzodiazepine-3-carboxamide] | 6.24 | 6.72 | 
CNC(=O)N1N=C(c2ccc(-c3nc(C)no3)cc2)c2cc(OC)c(OC)cc2CC1C (racemic) [Example 248, (±)-7,8-Dimethoxy-N,4-dimethyl-1-[4-(3-methyl-1,2,4-oxadiazol-5-yl)phenyl]-4,5-dihydro-3H-2,3-benzodiazepine-3-carboxamide] | 6.85 | 6.72 | 
CNC(=O)N1N=C(c2ccc(N3CCC(O)CC3)cc2)c2cc(OC(F)(F)F)ccc2CC1C (racemic) [Example 251, (±)-1-[4-(4-hydroxy-1-piperidinyl)phenyl]-N,4-dimethyl-8-(trifluoromethoxy)-4,5-dihydro-3H-2,3-benzodiazepine-3-carboxamide] | 7.00 | 7.52 | 
CNC(=O)N1N=C(c2ccc(Cl)cc2)c2cc(OC(F)(F)F)c(Cl)cc2CC1C (single isomer, unassigned) [Example 15.1, 7-Chloro-1-(4-chlorophenyl)-N,4-dimethyl-8-(trifluoromethoxy)-4,5-dihydro-3H-2,3-benzodiazepine-3-carboxamide] | 5.52 | 6.35 | 
CNC(=O)N1N=C(c2ccc(-c3sc(C)nc3C)cc2)c2cc(OC)c(OC)cc2C[C@@H]1C (single isomer, unassigned) [Example 46.1] | 5.29 | 6.02 | 
CNC(=O)N1N=C(c2ccc(N3CCOCC3)cc2)c2cc(OC)c(OC)cc2C[C@H]1C [Example 7.1, (4R)-7,8-dimethoxy-N,4-dimethyl-1-[4-(morpholin-4-yl)phenyl]-4,5-dihydro-3H-2,3-benzodiazepine-3-carboxamide] | < 5.00 | 5.50 | 
CNC(=O)N1N=C(c2ccc(-c3cnn(C)c3)cc2)c2cc(OC)ccc2C[C@@H]1C [Example 21, (4S)-8-methoxy-N,4-dimethyl-1-[4-(1-methyl-1H-pyrazol-4-yl)phenyl]-4,5-dihydro-3H-2,3-benzodiazepine-3-carboxamide] | 6.25 | 6.89 | 
CCc1cc(C2CC2)nn1-c1ccc(C2=NN(C(=O)NC)[C@@H](C)Cc3ccc(OC)cc32)cc1 [Example 24] | 5.93 | 6.60 | 
CCc1cc(C2CC2)n(-c2ccc(C3=NN(C(=O)NC)[C@@H](C)Cc4ccc(OC)cc43)cc2)n1 [Example 25, (4S)-1-[4-(5-cyclopropyl-3-ethyl-1H-pyrazol-1-yl)phenyl]-8-methoxy-N,4-dimethyl-4,5-dihydro-3H-2,3-benzodiazepine-3-carboxamide] | 6.13 | 6.80 | 
CNC(=O)N1N=C(c2ccc(-n3nc(C4CC4)cc3-c3ccccn3)cc2)c2cc(OC)ccc2C[C@@H]1C [Example 29, (4S)-1-{4-[3-cyclopropyl-5-(pyridin-2-yl)-1H-pyrazol-1-yl]phenyl}-8-methoxy-N,4-dimethyl-4,5-dihydro-3H-2,3-benzodiazepine-3-carboxamide] | 6.44 | 6.89 | 
CNC(=O)N1N=C(c2ccc(-n3cnnn3)cc2)c2cc(OC)ccc2C[C@@H]1C [Example 30, (4S)-8-Methoxy-N,4-dimethyl-1-[4-(1H-tetrazol-1-yl)phenyl]-4,5-dihydro-3H-2,3-benzodiazepine-3-carboxamide] | 6.10 | 6.64 | 
CNC(=O)N1N=C(c2ccc(Cl)cc2)c2cc(OCCN3CCCC3)ccc2CC1C (centres unmarked) [Example 33] |  | 6.11 | 5.48
CNC(=O)N1N=C(c2ccc(N3CCN(C)CC3=O)cc2)c2cc(OC)c(OC)cc2C[C@@H]1C [Example 43.1, (4S)-7,8-dimethoxy-N,4-dimethyl-1-[4-(4-methyl-2-oxopiperazin-1-yl)phenyl]-4,5-dihydro-3H-2,3-benzodiazepine-3-carboxamide] | 6.09 | 6.77 | 
CNC(=O)N1N=C(c2ccc(N3CCN(C)CC3=O)cc2)c2cc(OC)c(OC)cc2C[C@H]1C [Example 43.2, (4R)-7,8-dimethoxy-N,4-dimethyl-1-[4-(4-methyl-2-oxopiperazin-1-yl)phenyl]-4,5-dihydro-3H-2,3-benzodiazepine-3-carboxamide] | 5.01 | 5.34 | 
CNC(=O)N1N=C(c2ccc(-c3cn(C)nn3)cc2)c2cc(OC)c(OC)cc2C[C@@H]1C [Example 45.1, (4S)-7,8-dimethoxy-N,4-dimethyl-1-[4-(1-methyl-1H-1,2,3-triazol-4-yl)phenyl]-4,5-dihydro-3H-2,3-benzodiazepine-3-carboxamide] | 6.66 | 7.15 | 
CNC(=O)N1N=C(c2ccc(-c3ccc(O)nc3)cc2)c2cc(OC)c(OC)cc2C[C@@H]1C [Example 49.1, (4S)-1-[4-(6-hydroxypyridin-3-yl)phenyl]-7,8-dimethoxy-N,4-dimethyl-4,5-dihydro-3H-2,3-benzodiazepine-3-carboxamide] | 6.64 | 7.70 | 
CNC(=O)N1N=C(c2ccc(-c3ccc(C(F)(F)F)nc3)cc2)c2cc(OC)c(OC)cc2C[C@@H]1C [Example 50.1, (4S)-7,8-dimethoxy-N,4-dimethyl-1-{4-[6-(trifluoromethyl)pyridin-3-yl]phenyl}-4,5-dihydro-3H-2,3-benzodiazepine-3-carboxamide] | 6.43 | 6.96 | 
CNC(=O)N1N=C(c2ccc(-c3c(C)nn(C)c3C)cc2)c2cc(OC)c(OC)cc2C[C@H]1C [Example 51.1, (4R)-7,8-dimethoxy-N,4-dimethyl-1-[4-(1,3,5-trimethyl-1H-pyrazol-4-yl)phenyl]-4,5-dihydro-3H-2,3-benzodiazepine-3-carboxamide] | < 5.00 | 5.73 | 
CNC(=O)N1N=C(c2ccc(N3CCN(C)CC3)cc2)c2cc(OC)c(OC)cc2C[C@H]1C [Example 127.2, (4R)-7,8-dimethoxy-N,4-dimethyl-1-[4-(4-methylpiperazin-1-yl)phenyl]-4,5-dihydro-3H-2,3-benzodiazepine-3-carboxamide] | < 5.00 | 5.06 | 
CNC(=O)N1N=C(c2ccc(N3CCC3)cc2)c2cc(OC)c(OC)cc2C[C@H]1C [Example 128.1, (4R)-1-[4-(azetidin-1-yl)phenyl]-7,8-dimethoxy-N,4-dimethyl-4,5-dihydro-3H-2,3-benzodiazepine-3-carboxamide] | < 5.00 | 5.40 | 
CNC(=O)N1N=C(c2ccc(N3CC(F)C3)cc2)c2cc(OC)c(OC)cc2C[C@H]1C [Example 129.1, (4R)-1-[4-(3-fluoroazetidin-1-yl)phenyl]-7,8-dimethoxy-N,4-dimethyl-4,5-dihydro-3H-2,3-benzodiazepine-3-carboxamide] | < 5.00 | 5.18 | 
CNC(=O)N1N=C(c2ccc(N3CCN(C(C)=O)CC3)cc2)c2cc(OC)c(OC)cc2C[C@H]1C [Example 132.1, (4R)-1-[4-(4-acetylpiperazin-1-yl)phenyl]-7,8-dimethoxy-N,4-dimethyl-4,5-dihydro-3H-2,3-benzodiazepine-3-carboxamide] | 5.12 | 5.39 | 
CNC(=O)N1N=C(c2ccc(N3CCN(C(C)=O)CC3)cc2)c2cc(OC)c(OC)cc2C[C@@H]1C [Example 132.2, (4S)-1-[4-(4-acetylpiperazin-1-yl)phenyl]-7,8-dimethoxy-N,4-dimethyl-4,5-dihydro-3H-2,3-benzodiazepine-3-carboxamide] | 6.64 | 7.70 | 
CNC(=O)N1N=C(c2ccc(N3CCN(C(=O)C(C)(C)O)CC3)cc2)c2cc(OC)c(OC)cc2C[C@@H]1C [Example 134.1, (4S)-1-{4-[4-(2-hydroxy-2-methylpropanoyl)piperazin-1-yl]phenyl}-7,8-dimethoxy-N,4-dimethyl-4,5-dihydro-3H-2,3-benzodiazepine-3-carboxamide] | 7.10 | 7.52 | 
CNC(=O)N1N=C(c2ccc(N3CCS(=O)(=O)CC3)cc2)c2cc(OC)c(OC)cc2C[C@@H]1C [Example 136, (4S)-1-[4-(1,1-dioxidothiomorpholin-4-yl)phenyl]-7,8-dimethoxy-N,4-dimethyl-4,5-dihydro-3H-2,3-benzodiazepine-3-carboxamide] | 6.70 | 7.70 | 
CNC(=O)N1N=C(c2ccc(N3CCN(C)C(=O)C3)cc2)c2cc(OC)c(OC)cc2C[C@@H]1C [Example 138.1, (4S)-7,8-dimethoxy-N,4-dimethyl-1-[4-(4-methyl-3-oxopiperazin-1-yl)phenyl]-4,5-dihydro-3H-2,3-benzodiazepine-3-carboxamide] | 6.74 | 7.40 | 
CNC(=O)N1N=C(c2ccc(-n3ccc(-c4ccc(F)cc4)n3)cc2)c2cc(OC)c(OC)cc2C[C@H]1C [Example 150.2, (4R)-1-{4-[3-(4-fluorophenyl)-1H-pyrazol-1-yl]phenyl}-7,8-dimethoxy-N,4-dimethyl-4,5-dihydro-3H-2,3-benzodiazepine-3-carboxamide] | 5.01 | 4.91 | 
CNC(=O)N1N=C(c2ccc(-c3c(C)noc3C)cc2)c2cc(OC(F)(F)F)c(Cl)cc2C[C@@H]1C [Example 156.1, (4S)-7-Chloro-1-[4-(3,5-dimethylisoxazol-4-yl)phenyl]-N,4-dimethyl-8-(trifluoromethoxy)-4,5-dihydro-3H-2,3-benzodiazepine-3-carboxamide] | 6.25 | 6.48 | 
